Source: patent US20180000085A1, “USE OF PICOLINAMIDE COMPOUNDS WITH FUNGICIDAL ACTIVITY” (DOW AGROSCIENCES LLC, priority 2014, published 2018)

Experiments:
Type in all cases: in vivo
Details in all cases: 100 ppm, 1 Day Protectant
Leptosphaeria nodorum = assay: Wheat glume blotch (LEPTNO) disease control
Procedure: All fungicides were evaluated using the aforementioned method for their activity vs. all target diseases, unless stated otherwise. Wheat leaf blotch and brown rust activity were also evaluated using track spray applications, in which case the fungicides were formulated as EC formulations, containing 0.1% Trycol 5941 in the spray solutions. Wheat plants (variety Yuma) were grown from seed in a greenhouse in 50% mineral soil/50% soil-less Metro mix until the first leaf was fully emerged, with 7-10 seedlings per pot. These plants were inoculated with an aqueous spore suspension of Zymoseptoria tritici either prior to or after fungicide treatments. After inoculation the plants were kept in 100% relative humidity (one day in a dark dew chamber followed by two to three days in a lighted dew chamber at 20° C.) to permit spores to germinate and infect the leaf. The plants were then transferred to a greenhouse set at 20° C. for disease to develop. When disease symptoms were fully expressed on the 1st leaves of untreated plants, infection levels were assessed on a scale of 0 to 100 percent disease severity. Percent disease control was calculated using the ratio of disease severity on treated plants relative to untreated plants. Example C: Evaluation of Fungicidal Activity: Wheat Glume Blotch (Leptosphaeria nodorum; Bayer Code […]) Wheat plants (variety Yuma) were grown from seed in a greenhouse in 50% mineral soil/50% soil-less Metro mix until the first leaf was fully emerged, with 7-10 seedlings per pot. These plants were inoculated with an aqueous spore suspension of Leptosphaeria nodorum 24 hr after fungicide treatments. After inoculation the plants were kept in 100% relative humidity (one day in a dark dew chamber followed by two days in a lighted dew chamber at 20° C.) to permit spores to germinate and infect the leaf. The plants were then transferred to a greenhouse set at 20° C. for disease to develop. Fungicide formulation, application and disease assessment followed the procedures as described in the Example A.

Venturia inaequalis = assay: Apple scab (VENTIN) disease control
Procedure: All fungicides were evaluated using the aforementioned method for their activity vs. all target diseases, unless stated otherwise. Wheat leaf blotch and brown rust activity were also evaluated using track spray applications, in which case the fungicides were formulated as EC formulations, containing 0.1% Trycol 5941 in the spray solutions. Wheat plants (variety Yuma) were grown from seed in a greenhouse in 50% mineral soil/50% soil-less Metro mix until the first leaf was fully emerged, with 7-10 seedlings per pot. These plants were inoculated with an aqueous spore suspension of Zymoseptoria tritici either prior to or after fungicide treatments. After inoculation the plants were kept in 100% relative humidity (one day in a dark dew chamber followed by two to three days in a lighted dew chamber at 20° C.) to permit spores to germinate and infect the leaf. The plants were then transferred to a greenhouse set at 20° C. for disease to develop. When disease symptoms were fully expressed on the 1st leaves of untreated plants, infection levels were assessed on a scale of 0 to 100 percent disease severity. Percent disease control was calculated using the ratio of disease severity on treated plants relative to untreated plants. […] Seedlings with two expanding young leaves at the top (older leaves at bottom of the plants were trimmed) were used in the test. Plants were inoculated with a spore suspension of Venturia inaequalis 24 hr after fungicide treatment and kept in a 22° C. dew chamber with 100% relative humidity for 48 hr, and then moved to a greenhouse set at 20° C. for disease to develop. Fungicide formulation, application and disease assessment on the sprayed leaves followed the procedures as described in the Example A.

Erysiphe cichoracearum = assay: Powdery mildew of cucumber (ERYSCI) disease control
Procedure: All fungicides were evaluated using the aforementioned method for their activity vs. all target diseases, unless stated otherwise. Wheat leaf blotch and brown rust activity were also evaluated using track spray applications, in which case the fungicides were formulated as EC formulations, containing 0.1% Trycol 5941 in the spray solutions. Wheat plants (variety Yuma) were grown from seed in a greenhouse in 50% mineral soil/50% soil-less Metro mix until the first leaf was fully emerged, with 7-10 seedlings per pot. These plants were inoculated with an aqueous spore suspension of Zymoseptoria tritici either prior to or after fungicide treatments. After inoculation the plants were kept in 100% relative humidity (one day in a dark dew chamber followed by two to three days in a lighted dew chamber at 20° C.) to permit spores to germinate and infect the leaf. The plants were then transferred to a greenhouse set at 20° C. for disease to develop. When disease symptoms were fully expressed on the 1st leaves of untreated plants, infection levels were assessed on a scale of 0 to 100 percent disease severity. Percent disease control was calculated using the ratio of disease severity on treated plants relative to untreated plants. […] Plants were inoculated with a spore suspension 24 hr following fungicide treatments. After inoculation the plants remained in the greenhouse set at 20° C. until disease was fully expressed. Fungicide formulation, application and disease assessment on the sprayed leaves followed the procedures as described in the Example A.

Structure (SMILES) | LEPTNO disease control, 1DP (Leptosphaeria nodorum) | VENTIN disease control, 1DP (Venturia inaequalis) | ERYSCI disease control, 1DP (Erysiphe cichoracearum)
COc1ccnc(C(=O)N[C@@H](C)C(=O)O[C@@H](C)[C@H](Oc2cccc(Cl)c2)C(C)C)c1OC(C)=O [Cmpd 566] | A (> 80) | – | –
CCC[C@@H](Oc1ccccc1)[C@H](C)OC(=O)[C@H](C)NC(=O)c1nccc(OC)c1OCOC(C)=O [Cmpd 699] | A (> 80) | B (≤ 80) | –
COc1ccnc(C(=O)N[C@@H](C)C(=O)O[C@@H](C)[C@H](Oc2ccccc2)c2ccccc2)c1OCOC(C)=O [Cmpd 500] | A (> 80) | B (≤ 80) | –
COc1ccnc(C(=O)N[C@@H](C)C(=O)O[C@@H](C)[C@H](Oc2cc(F)cc(Cl)c2)C(C)C)c1OCOC(C)=O [Cmpd 617] | A (> 80) | – | –
COc1ccnc(C(=O)N[C@H](C)C(=O)O[C@H](C)[C@H](Oc2ccccc2)C(C)C)c1OCOC(C)=O [Cmpd 560] | – | B (≤ 80) | –
COc1ccnc(C(=O)N[C@@H](C)C(=O)O[C@@H](C)[C@H](Oc2ccccc2Cl)c2ccccc2)c1OC(C)=O [Cmpd 640] | A (> 80) | – | –
CC[C@@H](CCOC)[C@@H](Oc1ccccc1)[C@H](C)OC(=O)[C@H](C)NC(=O)c1nccc(OC)c1OC(C)=O [Cmpd 482] | A (> 80) | – | B (≤ 80)
COc1ccnc(C(=O)N[C@@H](C)C(=O)O[C@@H](C)[C@H](Oc2ccccc2)C(C)C)c1OCOC(C)=O [Cmpd 475] | A (> 80) | A (> 80) | B (≤ 80)
CCCOC(CC)C(Oc1ccccc1)C(C)OC(=O)C(C)NC(=O)c1nccc(OC)c1OCOC(C)=O (centres unmarked) [Cmpd 446] | A (> 80) | – | –
COc1ccnc(C(=O)N[C@@H](C)C(=O)O[C@@H](C)[C@H](Oc2cccc(Cl)c2)c2ccccc2)c1OCOC(C)=O [Cmpd 637] | B (≤ 80) | – | –
CCC(C)C(Oc1ccccc1)C(C)OC(=O)C(C)NC(=O)c1nccc(OC)c1OCOC(C)=O (centres unmarked) [Cmpd 692] | A (> 80) | B (≤ 80) | –
COc1ccnc(C(=O)N[C@@H](C)C(=O)O[C@@H](C)[C@@H](Oc2ccccc2)C(C)C)c1OCOC(C)=O [Cmpd 552] | – | B (≤ 80) | –
COc1ccnc(C(=O)N[C@@H](C)C(=O)O[C@@H](C)[C@H](Oc2cc(F)cc(Cl)c2)c2ccccc2)c1OC(C)=O [Cmpd 642] | A (> 80) | A (> 80) | –
CCC(CC)[C@@H](Oc1ccccc1)[C@H](C)OC(=O)[C@H](C)NC(=O)c1nccc(OC)c1OC(C)=O [Cmpd 479] | A (> 80) | A (> 80) | A (> 80)
COc1ccnc(C(=O)N[C@@H](C)C(=O)O[C@@H](C)[C@@H](CC(C)C)Oc2ccccc2)c1OCOC(C)=O [Cmpd 557] | – | B (≤ 80) | –
COc1ccnc(C(=O)N[C@@H](C)C(=O)O[C@@H](C)[C@H](Oc2ccccc2)C(C)C)c1OC(C)=O [Cmpd 478] | A (> 80) | – | B (≤ 80)
CCC(CC)[C@@H](Oc1ccc(F)cc1)[C@H](C)OC(=O)[C@H](C)NC(=O)c1nccc(OC)c1OCOC(C)=O [Cmpd 587] | A (> 80) | – | –
COc1ccnc(C(=O)N[C@@H](C)C(=O)O[C@@H](C)[C@H](Oc2cccc(F)c2)c2ccccc2)c1OCOC(C)=O [Cmpd 574] | A (> 80) | – | –
CCC(CC)[C@@H](Oc1ccccc1)[C@H](C)OC(=O)[C@H](C)NC(=O)c1nccc(OC)c1OCOC(C)=O [Cmpd 477] | A (> 80) | B (≤ 80) | A (> 80)
COc1ccnc(C(=O)N[C@H](C)C(=O)O[C@@H](C)[C@H](Oc2ccccc2)C(C)C)c1OCOC(C)=O [Cmpd 558] | – | B (≤ 80) | –
COc1ccnc(C(=O)N[C@@H](C)C(=O)O[C@@H](C)[C@@H](CC(C)C)Oc2ccccc2)c1OCOC(=O)C(C)C [Cmpd 1101] | B (≤ 80) | – | –
CCC(C)C(Oc1ccccc1)C(C)OC(=O)C(C)NC(=O)c1nccc(OC)c1OC(C)=O (centres unmarked) [Cmpd 691] | A (> 80) | – | –
C=CC(C)C(Oc1ccccc1)C(C)OC(=O)C(C)NC(=O)c1nccc(OC)c1OCOC(C)=O (centres unmarked) [Cmpd 694] | A (> 80) | B (≤ 80) | –
COc1ccnc(C(=O)N[C@H](C)C(=O)O[C@H](C)[C@@H](Oc2ccccc2)C(C)C)c1OCOC(C)=O [Cmpd 548] | – | B (≤ 80) | –
COc1ccnc(C(=O)N[C@H](C)C(=O)O[C@H](C)[C@@H](Oc2ccccc2)c2ccccc2)c1OCOC(C)=O [Cmpd 549] | – | B (≤ 80) | –
COc1ccnc(C(=O)N[C@@H](C)C(=O)O[C@@H](C)[C@H](Oc2ccccc2)C2CCCC2)c1OCOC(C)=O [Cmpd 556] | A (> 80) | A (> 80) | –
COc1ccnc(C(=O)N[C@H](C)C(=O)O[C@@H](C)[C@@H](Oc2ccccc2)C(C)C)c1OCOC(C)=O [Cmpd 559] | – | B (≤ 80) | –
COc1ccnc(C(=O)N[C@@H](C)C(=O)O[C@H](C)[C@@H](Oc2ccccc2)c2ccccc2)c1OCOC(C)=O [Cmpd 547] | – | B (≤ 80) | –
CC[C@@H](CCOC)[C@@H](Oc1ccccc1)[C@H](C)OC(=O)[C@H](C)NC(=O)c1nccc(OC)c1OCOC(C)=O [Cmpd 476] | A (> 80) | – | B (≤ 80)
